± gives the expanded uncertainty stated by the source.
Details: Crystal; visual observation

## O=P1(CO)Oc2ccccc2-c2ccccc21 (stereo unspecified) [6-(hydroxymethyl)dibenzo[c,e][1,2]oxaphosphinine 6-oxide]
  Normal melting temperature: 158.50 ± 1.5 °C

— the NIST ThermoML archive (doi:10.1021/je050488p)
